According to patent publication US20230072683A1, “PYRIDO-PYRIMIDIN DERIVATIVES AND PHARMACEUTICAL COMPOSITION, FOR USE IN PREVENTING OR TREATING PI3 KINASE RELATED DISEASES, COMPRISING SAME AS ACTIVE INGREDIENT” (BORYUNG PHARMACEUTICAL CO., LTD, priority 2019, published 2023):

How the values were obtained:
[1] = target: PI3K-δ (PI3K(p1108/p857) (h)) (Homo sapiens, UniProt O00329); test: Evaluation of inhibitory activity against PI3K-δ (HTRF kinase assay); format: biochemical; conditions: for inhibition at 0.01 µM: compound concentration 0.01 μM, read-out: EXP_VALUE(% Inhibition) PI3K-δ 0.01 μM; for inhibition at 0.1 µM: compound concentration 0.1 μM, read-out: EXP_VALUE(% Inhibition) PI3K-δ 0.1 μM
Method in brief: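 HTRF read-out (665/620 nm ratio ×10000) used Eu-labelled anti-GST, GST-tagged GRP1 PH domain and streptavidin-allophycocyanin after EDTA/PIP3 stop.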

DNA-PK(h) = DNA-PK(h) (Homo sapiens, UniProt P78527); test: Evaluation of inhibitory activity against DNA-PK (HTRF kinase assay, GST-cMyc-p53 substrate); format: biochemical; conditions: for inhibition at 0.01 µM: compound concentration 0.01 μM, read-out: EXP_VALUE(% Inhibition) DNA-PK(h) 0.01 μM; for inhibition at 0.1 µM: compound concentration 0.1 μM, read-out: EXP_VALUE(% Inhibition) DNA-PK(h) 0.1 μM
Method in brief: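 p53 Ser15 phosphorylation by human DNA-PK was measured by time-resolved FRET ratio (665/620 nm ×10000) using Eu-labelled anti-phospho-Ser15 and d2 anti-GST antibodies. Substrate GST-cMyc-p53 at 50 μM; Mg/ATP-initiated, 30 min at room temperature, EDTA stop.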

PI3K-δ (PI3K(p1108/p857) (h)), sequence (O00329 whole entry, the tested form may be a part): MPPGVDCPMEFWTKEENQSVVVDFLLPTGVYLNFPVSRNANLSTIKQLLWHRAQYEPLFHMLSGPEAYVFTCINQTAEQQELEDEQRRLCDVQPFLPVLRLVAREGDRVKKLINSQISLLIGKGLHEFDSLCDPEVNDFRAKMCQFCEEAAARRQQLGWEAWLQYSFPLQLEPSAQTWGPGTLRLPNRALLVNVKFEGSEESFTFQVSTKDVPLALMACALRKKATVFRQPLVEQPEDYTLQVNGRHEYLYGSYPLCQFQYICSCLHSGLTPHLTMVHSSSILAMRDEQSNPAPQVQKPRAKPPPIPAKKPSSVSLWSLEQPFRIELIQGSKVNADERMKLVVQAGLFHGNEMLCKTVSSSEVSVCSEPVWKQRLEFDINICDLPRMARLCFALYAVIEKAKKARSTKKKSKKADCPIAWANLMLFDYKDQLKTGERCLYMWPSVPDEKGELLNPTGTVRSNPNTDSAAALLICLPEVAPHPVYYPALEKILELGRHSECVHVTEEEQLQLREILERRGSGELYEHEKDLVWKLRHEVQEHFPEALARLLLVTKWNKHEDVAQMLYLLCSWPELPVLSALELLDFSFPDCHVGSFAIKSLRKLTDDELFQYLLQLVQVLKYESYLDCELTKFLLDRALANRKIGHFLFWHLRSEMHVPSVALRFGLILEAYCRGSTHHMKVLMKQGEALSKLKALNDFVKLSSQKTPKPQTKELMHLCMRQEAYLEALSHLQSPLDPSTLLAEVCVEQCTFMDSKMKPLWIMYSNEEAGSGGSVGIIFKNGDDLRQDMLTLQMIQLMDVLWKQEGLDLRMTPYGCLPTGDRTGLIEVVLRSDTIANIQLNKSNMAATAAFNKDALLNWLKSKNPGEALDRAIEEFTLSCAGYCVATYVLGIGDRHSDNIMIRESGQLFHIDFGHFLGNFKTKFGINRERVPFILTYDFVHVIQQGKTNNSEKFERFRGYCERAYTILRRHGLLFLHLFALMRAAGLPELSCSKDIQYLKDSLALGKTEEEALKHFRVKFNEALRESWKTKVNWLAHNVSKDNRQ
PI3K-δ (PI3K(p1108/p857) (h)), sequence (P27986 whole entry partner, the tested form may be a part): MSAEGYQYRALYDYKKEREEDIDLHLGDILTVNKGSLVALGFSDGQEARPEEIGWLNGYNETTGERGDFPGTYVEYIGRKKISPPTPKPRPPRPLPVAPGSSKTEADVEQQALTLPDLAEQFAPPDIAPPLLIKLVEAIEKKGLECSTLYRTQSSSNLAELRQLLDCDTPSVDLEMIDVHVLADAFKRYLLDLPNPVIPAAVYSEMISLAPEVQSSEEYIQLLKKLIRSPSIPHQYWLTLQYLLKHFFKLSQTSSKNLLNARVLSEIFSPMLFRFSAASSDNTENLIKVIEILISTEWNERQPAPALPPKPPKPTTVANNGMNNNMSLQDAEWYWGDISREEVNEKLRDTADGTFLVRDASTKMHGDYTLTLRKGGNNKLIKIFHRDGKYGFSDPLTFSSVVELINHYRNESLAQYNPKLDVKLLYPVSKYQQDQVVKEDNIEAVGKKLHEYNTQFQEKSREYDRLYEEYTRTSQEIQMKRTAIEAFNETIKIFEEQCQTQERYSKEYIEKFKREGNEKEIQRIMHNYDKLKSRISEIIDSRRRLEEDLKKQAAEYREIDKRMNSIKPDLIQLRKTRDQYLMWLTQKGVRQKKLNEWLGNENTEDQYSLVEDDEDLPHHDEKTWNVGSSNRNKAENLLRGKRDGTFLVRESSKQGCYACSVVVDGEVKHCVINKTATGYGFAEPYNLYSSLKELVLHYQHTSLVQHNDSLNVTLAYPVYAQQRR

## C[C@H](Nc1ncnc2[nH]ccc(=O)c12)c1c(Cl)c2cccc(C#Cc3ccccc3)c2c(=O)n1-c1ccccc1 [Example 305, (S)-4-((1-(4-chloro-1-oxo-2-phenyl-8-(phenylethynyl)-1,2-dihydroisoquinolin-3-yl)ethyl)amino)pyrido[2,3-d]pyrimidin-5(8H)-one]
[1]
  inhibition at 0.01 µM: 83%
  inhibition at 0.1 µM: 99%
DNA-PK(h)
  inhibition at 0.01 µM: 20%
  inhibition at 0.1 µM: 62%

## C[C@H](Nc1ncnc2[nH]ccc(=O)c12)c1c(Cl)c2cccc(C#Cc3ccncc3)c2c(=O)n1-c1ccccc1 [Example 306, (S)-4-((1-(4-chloro-1-oxo-2-phenyl-8-(pyridin-4-ylethynyl)-1,2-dihydroisoquinolin-3-yl)ethyl)amino)pyrido[2,3-d]pyrimidin-5(8H)-one]
[1]
  inhibition at 0.01 µM: 57%
  inhibition at 0.1 µM: 105%
DNA-PK(h)
  inhibition at 0.01 µM: 75%
  inhibition at 0.1 µM: 95%

## C[C@H](Nc1ncnc2[nH]ccc(=O)c12)c1c(Cl)c2cccc(C#Cc3cccnc3)c2c(=O)n1-c1ccccc1 [Example 307, (S)-4-((1-(4-chloro-1-oxo-2-phenyl-8-(pyridin-3-ylethynyl)-1,2-dihydroisoquinolin-3-yl)ethyl)amino)pyrido[2,3-d]pyrimidin-5(8H)-one]
[1]
  inhibition at 0.01 µM: 83%
  inhibition at 0.1 µM: 114%
DNA-PK(h)
  inhibition at 0.01 µM: 80%
  inhibition at 0.1 µM: 95%

## C[C@H](Nc1ncnc2[nH]ccc(=O)c12)c1c(Cl)c2cccc(C#Cc3ccccn3)c2c(=O)n1-c1ccccc1 [Example 308, (S)-4-((1-(4-chloro-1-oxo-2-phenyl-8-(pyridin-2-ylethynyl)-1,2-dihydroisoquinolin-3-yl)ethyl)amino)pyrido[2,3-d]pyrimidin-5(8H)-one]
[1]
  inhibition at 0.01 µM: 28.4%
  inhibition at 0.1 µM: 60.3%
DNA-PK(h)
  inhibition at 0.01 µM: 21.5%
  inhibition at 0.1 µM: 70.3%

## C[C@H](Nc1ncnc2[nH]ccc(=O)c12)c1c(Cl)c2cccc(C#Cc3cnn(C)c3)c2c(=O)n1-c1ccccc1 [Example 309, (S)-4-((1-(4-chloro-8-((1-methyl-1H-pyrazol-4-yl)ethynyl)-1-oxo-2-phenyl-1,2-dihydroisoquinolin-3-yl)ethyl)amino)pyrido[2,3-d]pyrimidin-5(8H)-one]
[1]
  inhibition at 0.01 µM: 42.4%
  inhibition at 0.1 µM: 65.6%
DNA-PK(h)
  inhibition at 0.01 µM: 23.2%
  inhibition at 0.1 µM: 64.8%

## C[C@H](Nc1ncnc2[nH]ccc(=O)c12)c1c(Cl)c2cccc(C#Cc3ccc(-c4ccccc4)cc3)c2c(=O)n1-c1ccccc1 [Example 310, (S)-4-((1-(8-([1,1′-biphenyl]-4-ylethynyl)-4-chloro-1-oxo-2-phenyl-1,2-dihydroisoquinolin-3-yl)ethyl)amino)pyrido[2,3-d]pyrimidin-5(8H)-one]
[1]
  inhibition at 0.01 µM: 31.5%
  inhibition at 0.1 µM: 20.4%
DNA-PK(h)
  inhibition at 0.01 µM: -2.5%
  inhibition at 0.1 µM: 3.2%

## C[C@H](Nc1ncnc2[nH]ccc(=O)c12)c1c(Cl)c2cccc(C#Cc3ccnn3C)c2c(=O)n1-c1ccccc1 [Example 311, (S)-4-((1-(4-chloro-8-((1-methyl-1H-pyrazol-5-yl)ethynyl)-1-oxo-2-phenyl-1,2-dihydroisoquinolin-3-yl)ethyl)amino)pyrido[2,3-d]pyrimidin-5(8H)-one]
[1]
  inhibition at 0.01 µM: 18.2%
  inhibition at 0.1 µM: 39.5%
DNA-PK(h)
  inhibition at 0.01 µM: 47.1%
  inhibition at 0.1 µM: 82.2%

## C[C@H](Nc1ncnc2[nH]ccc(=O)c12)c1c(Cl)c2cccc(C#Cc3nccs3)c2c(=O)n1-c1ccccc1 [Example 312, (S)-4-((1-(4-chloro-1-oxo-2-phenyl-8-(thiazol-2-ylethynyl)-1,2-dihydroisoquinolin-3-yl)ethyl)amino)pyrido[2,3-d]pyrimidin-5(8H)-one]
[1]
  inhibition at 0.01 µM: 46.8%
  inhibition at 0.1 µM: 77.1%
DNA-PK(h)
  inhibition at 0.01 µM: 39.8%
  inhibition at 0.1 µM: 84.3%

## C[C@H](Nc1ncnc2[nH]ccc(=O)c12)c1c(Cl)c2cccc(C#Cc3cncs3)c2c(=O)n1-c1ccccc1 [Example 313, (S)-4-((1-(4-chloro-1-oxo-2-phenyl-8-(thiazol-5-ylethynyl)-1,2-dihydroisoquinolin-3-yl)ethyl)amino)pyrido[2,3-d]pyrimidin-5(8H)-one]
[1]
  inhibition at 0.01 µM: 20.2%
  inhibition at 0.1 µM: 55%
DNA-PK(h)
  inhibition at 0.01 µM: 47.2%
  inhibition at 0.1 µM: 84.6%

## C[C@H](Nc1ncnc2[nH]ccc(=O)c12)c1c(Cl)c2cccc(C#Cc3ccc(N(C)C)cc3)c2c(=O)n1-c1ccccc1 [Example 314, (S)-4-((1-(4-chloro-8-((4-(dimethylamino)phenyl)ethynyl)-1-oxo-2-phenyl-1,2-dihydroisoquinolin-3-yl)ethyl)amino)-5-oxo-5,8-dihydropyrido[2,3-d]pyrimidin-5(8H)-one]
[1]
  inhibition at 0.01 µM: 76%
  inhibition at 0.1 µM: 96%
DNA-PK(h)
  inhibition at 0.01 µM: 25%
  inhibition at 0.1 µM: 75%

## C[C@H](Nc1ncnc2[nH]ccc(=O)c12)c1c(Cl)c2cccc(C#Cc3ccc(C(F)(F)F)cc3)c2c(=O)n1-c1ccccc1 [Example 315, (S)-4-((1-(4-chloro-1-oxo-2-phenyl-8-((4-(trifluoromethyl)phenyl)ethynyl)-1,2-dihydroisoquinolin-3-yl)ethyl)amino)-5-oxo-5,8-dihydropyrido[2,3-d]pyrimidin-5(8H)-one, 2,2,2-trifluoroacetate]
[1]
  inhibition at 0.01 µM: 39%
  inhibition at 0.1 µM: 89%
DNA-PK(h)
  inhibition at 0.01 µM: 18%
  inhibition at 0.1 µM: 62%

## C[C@H](Nc1ncnc2[nH]ccc(=O)c12)c1c(Cl)c2cccc(C#Cc3cncnc3)c2c(=O)n1-c1ccccc1 [Example 316, (S)-4-((1-(4-chloro-1-oxo-2-phenyl-8-(pyrimidin-5-ylethynyl)-1,2-dihydroisoquinolin-3-yl)ethyl)amino)pyrido[2,3-d]pyrimidin-5(8H)-one]
[1]
  inhibition at 0.01 µM: 43%
  inhibition at 0.1 µM: 91%
DNA-PK(h)
  inhibition at 0.01 µM: 88%
  inhibition at 0.1 µM: 99%

## C[C@H](Nc1ncnc2[nH]ccc(=O)c12)c1c(Cl)c2cccc(-c3nc4ccccc4o3)c2c(=O)n1-c1ccccc1 [Example 317, (S)-4-((1-(8-(benzo[d]oxazol-2-yl)-4-chloro-1-oxo-2-phenyl-1,2-dihydroisoquinolin-3-yl)ethyl)amino)pyrido[2,3-d]pyrimidin-5(8H)-one]
[1]
  inhibition at 0.01 µM: 45%
  inhibition at 0.1 µM: 86%
DNA-PK(h)
  inhibition at 0.01 µM: 64%
  inhibition at 0.1 µM: 96%

## C[C@H](Nc1ncnc2[nH]ccc(=O)c12)c1cc2cccc(-c3nc4ccccc4o3)c2c(=O)n1-c1ccccc1 [Example 318, (S)-4-((1-(8-(benzo[d]oxazol-2-yl)-1-oxo-2-phenyl-1,2-dihydroisoquinolin-3-yl)ethyl)amino)pyrido[2,3-d]pyrimidin-5(8H)-one]
[1]
  inhibition at 0.01 µM: 23%
  inhibition at 0.1 µM: 65%
DNA-PK(h)
  inhibition at 0.01 µM: 19%
  inhibition at 0.1 µM: 35%

## C[C@H](Nc1ncnc2[nH]ccc(=O)c12)c1c(Cl)c2cccc(N(C)Cc3ccccc3)c2c(=O)n1-c1ccccc1 [Example 319, (S)-4-((1-(8-(benzyl(methyl)amino)-4-chloro-1-oxo-2-phenyl-1,2-dihydroisoquinolin-3-yl)ethyl)amino)pyrido[2,3-d]pyrimidin-5(8H)-one]
[1]
  inhibition at 0.01 µM: 18%
  inhibition at 0.1 µM: 62%
DNA-PK(h)
  inhibition at 0.01 µM: 7%
  inhibition at 0.1 µM: 25%

## C[C@H](Nc1ncnc2[nH]ccc(=O)c12)c1c(Cl)c2cccc(-n3cccn3)c2c(=O)n1-c1ccccc1 [Example 320, (S)-4-((1-(4-chloro-1-oxo-2-phenyl-8-(1H-pyrazol-1-yl)-1,2-dihydroisoquinolin-3-yl)ethyl)amino)pyrido[2,3-d]pyrimidin-5(8H)-one]
[1]
  inhibition at 0.01 µM: 35.9%
  inhibition at 0.1 µM: 83.3%
DNA-PK(h)
  inhibition at 0.01 µM: 12.3%
  inhibition at 0.1 µM: 57.3%

## C[C@H](Nc1ncnc2[nH]ccc(=O)c12)c1c(Cl)c2cccc(NCc3ccccc3)c2c(=O)n1-c1ccccc1 [Example 321, (S)-4-((1-(8-(benzylamino)-4-chloro-1-oxo-2-phenyl-1,2-dihydroisoquinolin-3-yl)ethyl)amino)pyrido[2,3-d]pyrimidin-5(8H)-one]
[1]
  inhibition at 0.01 µM: 22%
  inhibition at 0.1 µM: 68%
DNA-PK(h)
  inhibition at 0.01 µM: 10%
  inhibition at 0.1 µM: 34%

## C[C@H](Nc1ncnc2[nH]ccc(=O)c12)c1c(Cl)c2cccc(N(C)C3CCCCC3)c2c(=O)n1-c1ccccc1 [Example 322, (S)-4-((1-(4-chloro-8-(cyclohexyl(methyl)amino)-1-oxo-2-phenyl-1,2-dihydroisoquinolin-3-yl)ethyl)amino)pyrido[2,3-d]pyrimidin-5(8H)-one]
[1]
  inhibition at 0.01 µM: 11%
  inhibition at 0.1 µM: 30%
DNA-PK(h)
  inhibition at 0.01 µM: -11%
  inhibition at 0.1 µM: 21%

## C[C@H](Nc1ncnc2[nH]ccc(=O)c12)c1c(Cl)c2cccc(NC3CC3)c2c(=O)n1-c1ccccc1 [Example 323, (S)-4-((1-(4-chloro-8-(cyclopropylamino)-1-oxo-2-phenyl-1,2-dihydroisoquinolin-3-yl)ethyl)amino)pyrido[2,3-d]pyrimidin-5(8H)-one]
[1]
  inhibition at 0.01 µM: 22%
  inhibition at 0.1 µM: 65%
DNA-PK(h)
  inhibition at 0.01 µM: 8%
  inhibition at 0.1 µM: 28%

## C[C@H](Nc1ncnc2[nH]ccc(=O)c12)c1c(Cl)c2cccc(NCc3cccnc3)c2c(=O)n1-c1ccccc1 [Example 324, (S)-4-((1-(4-chloro-1-oxo-2-phenyl-8-((pyridin-3-ylmethyl)amino)-1,2-dihydroisoquinolin-3-yl)ethyl)amino)pyrido[2,3-d]pyrimidin-5(8H)-one]
[1]
  inhibition at 0.01 µM: 19%
  inhibition at 0.1 µM: 58%
DNA-PK(h)
  inhibition at 0.01 µM: 30%
  inhibition at 0.1 µM: 74%
